Biological target: CDK2/Cyclin E1 (Homo sapiens (Human), UniProt P24941)
Assay: CDK2/Cyclin E1 HTRF enzyme activity assay (Example A)
Format: biochemical
Conditions: 1 mM ATP
Method: Assays were conducted in white 384-well polystyrene plates in a final reaction volume of 8 μL. […] HTRF signals were read after 1 hour at room temperature on a PHERAstar FS plate reader (BMG Labtech). Data was analyzed with IDBS XLFit and GraphPad Prism 5.0 software using a three or four parameter dose response curve to determine IC50 for each compound.

IC50, ≤ 50 nM:
CN(C)Cc1ccc(-n2cnc(-c3nc(N[C@H]4CCN(S(C)(=O)=O)C[C@H]4F)ncc3C(F)(F)F)c2)c(Cl)c1 [Example 183, 4-(1-(2-Chloro-4-((dimethylamino)methyl)phenyl)-1H-imidazol-4-yl)-N-((3R,4S)-3-fluoro-1-(methylsulfonyl)piperidin-4-yl)-5-(trifluoromethyl)pyrimidin-2-amine]
Cn1cnc(-c2nc(NC3CCN(S(C)(=O)=O)CC3)ncc2C(F)(F)F)c1Br [Example 13, 4-(5-Bromo-1-methyl-1H-imidazol-4-yl)-N-(1-(methylsulfonyl)piperidin-4-yl)-5-(trifluoromethyl)pyrimidin-2-amine]
CCN1CCC(c2ccc(-n3cnc(-c4nc(NC5CCN(S(C)(=O)=O)CC5)ncc4C(F)(F)F)c3)c(Cl)c2)CC1 [Example 438, 4-(1-(2-Chloro-4-(1-ethylpiperidin-4-yl)phenyl)-1H-imidazol-4-yl)-N-(1-(methylsulfonyl)piperidin-4-yl)-5-(trifluoromethyl)pyrimidin-2-amine]
CS(=O)(=O)N1CCC(Nc2ncc(C(F)(F)F)c(-c3cn(-c4ccc(CN5CC[C@H](O)C5)cc4C(F)(F)F)cn3)n2)CC1 [Example 260, (S)-1-(4-(4-(2-((1-(Methylsulfonyl)piperidin-4-yl)amino)-5-(trifluoromethyl)pyrimidin-4-yl)-1H-imidazol-1-yl)-(trifluoromethyl)benzyl) pyrrolidin-3-ol]
CC(C)(O)Cn1cnc(-c2nc(NC3CCN(S(=O)(=O)c4ccccn4)CC3)ncc2C(F)(F)F)c1 [Example 338, 2-Methyl-1-(4-(2-((1-(pyridin-2-ylsulfonyl)piperidin-4-yl)amino)-5-(trifluoromethyl)pyrimidin-4-yl)-1H-imidazol-1-yl)propan-2-ol]
Cn1cncc1-c1ccc(-n2cnc(-c3nc(NC4CCN(S(C)(=O)=O)CC4)ncc3C(F)(F)F)c2)c(Cl)c1 [Example 124, 4-(1-(2-Chloro-4-(1-methyl-1H-imidazol-5-yl)phenyl)-1H-imidazol-4-yl)-N-(1-(methylsulfonyl)-piperidin-4-yl)-5-(trifluoromethyl)-pyrimidin-2-amine]
Cc1nc(-c2nc(NC3CCN(S(C)(=O)=O)CC3)ncc2C(F)(F)F)cn1-c1ccc(N2CC[C@H](O)C2)cc1F [Example 116, (S)-1-(3-Fluoro-4-(2-methyl-4-(2-((1-(methylsulfonyl)-piperidin-4-yl)-amino)-5-(trifluoro-methyl)pyrimidin-4-yl)-1H-imidazol-1-yl)phenyl)pyrrolidin-3-ol]
Cc1nc(-c2nc(NC3CCN(S(C)(=O)=O)CC3)ncc2C(F)(F)F)cn1-c1ccc(C#N)cc1F [Example 303, 3-Fluoro-4-(2-methyl-4-(2-((1-(methylsulfonyl)piperidin-4-yl)amino)-5-(trifluoromethyl)pyrimidin-4-yl)-1H-imidazol-1-yl)benzonitrile]
Cc1nc(-c2nc(NC3CCN(S(C)(=O)=O)CC3)ncc2C(F)(F)F)cn1-c1ccc(OC[C@@H]2CCCN2C)cc1F [Example 425, (S)-4-(1-(2-Fluoro-4-((1-methylpyrrolidin-2-yl)methoxy)phenyl)-2-methyl-1H-imidazol-4-yl)-N-(1-(methylsulfonyl)piperidin-4-yl)-5-(trifluoromethyl)pyrimidin-2-amine]
CC(C)(O)Cn1cnc(-c2nc(N[C@@H]3CCN(S(C)(=O)=O)C[C@H]3F)ncc2C(F)(F)F)c1 [Example 326, 1-(4-(2-(((3R,4R)-3-Fluoro-1-(methylsulfonyl)piperidin-4-yl)amino)-5-(trifluoromethyl)pyrimidin-4-yl)-1H-imidazol-1-yl)-2-methylpropan-2-ol]
CS(=O)(=O)N1CCC(Nc2ncc(C(F)(F)F)c(-c3cn(C(CC#N)C4CC4)cn3)n2)CC1 (stereo not drawn) [Example 25, 3-Cyclopropyl-3-(4-(2-((1-(methylsulfonyl)piperidin-4-yl)amino)-5-(trifluoromethyl)pyrimidin-4-yl)-1H-imidazol-1-yl)propanenitrile]
Cc1nc(-c2nc(N[C@H]3CCN(S(C)(=O)=O)C[C@H]3F)ncc2C(F)(F)F)cn1-c1ccc(CNC2CC2)cc1F [Example 408]
CN1CCN(Cc2ccc(-n3cnc(-c4nc(NC5CCN(S(C)(=O)=O)CC5)ncc4C(F)(F)F)c3)c(Cl)c2)CC1=O [Example 211, 4-(3-Chloro-4-(4-(2-((1-(methylsulfonyl)-piperidin-4-yl)amino)-5-(trifluoromethyl)-pyrimidin-4-yl)-1H-imidazol-1-yl)benzyl)-1-methylpiperazin-2-one]
Cc1nc(-c2nc(NC3CCN(S(C)(=O)=O)CC3)ncc2C(F)(F)F)cn1-c1ccc(N2CCN(C)CC2)cc1F [Example 103, 4-(1-(2-Fluoro-4-(4-methylpiperazin-1-yl)phenyl)-2-methyl-1H-imidazol-4-yl)-N-(1-(methylsulfonyl)piperidin-4-yl)-5-(trifluoromethyl)pyrimidin-2-amine]
CC(=O)NCc1ccc(-n2cnc(-c3nc(NC4CCN(S(C)(=O)=O)CC4)ncc3C(F)(F)F)c2)c(Cl)c1 [Example 185, N-(3-Chloro-4-(4-(2-((1-(methylsulfonyl)piperidin-4-yl)amino)-5-(trifluoromethyl)pyrimidin-4-yl)-1H-imidazol-1-yl)benzyl)acetamide]
C[C@@H]1CN(S(C)(=O)=O)CC[C@@H]1Nc1ncc(C(F)(F)F)c(-c2cn(-c3ccc(CNCC#N)cc3Cl)cn2)n1 [Example 217, 2-((3-Chloro-4-(4-(2-(((3R,4S)-3-methyl-1-(methylsulfonyl)-piperidin-4-yl)amino)-5-(trifluoromethyl)-pyrimidin-4-yl)-1H-imidazol-1-yl)benzyl)-amino)acetonitrile]
COc1nccc(-n2cnc(-c3nc(NC4CCN(S(C)(=O)=O)CC4)ncc3C(F)(F)F)c2)c1Cl [Example 295, 4-(1-(3-Chloro-2-methoxypyridin-4-yl)-1H-imidazol-4-yl)-N-(1-(methylsulfonyl)piperidin-4-yl)-5-(trifluoromethyl)pyrimidin-2-amine]
Cc1nc(-c2nc(NC3CCN(S(C)(=O)=O)CC3)ncc2C(F)(F)F)cn1-c1ccc(N2CC(C)(O)C2)cc1F [Example 456, 1-(3-Fluoro-4-(2-methyl-4-(2-((1-(methylsulfonyl)piperidin-4-yl)amino)-5-(trifluoromethyl)pyrimidin-4-yl)-1H-imidazol-1-yl)phenyl)-3-methylazetidin-3-ol]
CS(=O)(=O)N1CCC(Nc2ncc(C(F)(F)F)c(-c3cn(-c4cccc(CN5CC[C@@H](O)C5)c4Cl)cn3)n2)CC1 [Example 364, (R)-1-(2-Chloro-3-(4-(2-((1-(methyslulfonyl)piperidin-4-yl)amino)-5-(trifluoromethyl)pyrimi-din-4-yl)-1H-imidazol-1-yl)benzyl)pyrrolidin-3-ol]
CNCc1cccc(-n2cnc(-c3nc(NC4CCN(S(C)(=O)=O)CC4)ncc3C(F)(F)F)c2)c1Cl [Example 80, 4-(1-(2-Chloro-3-((methylamino)methyl)phenyl)-1H-imidazol-4-yl)-N-(1-(methylsulfonyl)piperidin-4-yl)-5-(trifluoromethyl)pyrimidin-2-amine]
CS(=O)(=O)N1CCC(Nc2ncc(C(F)(F)F)c(-c3cn(-c4ccc(CNC5CC5)cc4C#N)cn3)n2)CC1 [Example 343, 5-((Cyclopropylamino)methyl)-2-(4-(2-((1-(methylsulfonyl)piperidin-4-yl)amino)-5-(trifluoromethyl)pyrimidin-4-yl)-1H-imidazol-1-yl)benzonitrile]
Cc1nc(C(=O)NC(C)C)ccc1-n1cnc(-c2nc(NC3CCN(S(C)(=O)=O)CC3)ncc2C(F)(F)F)c1 [Example 133, N-Isopropyl-6-methyl-5-(4-(2-((1-(methyl-sulfonyl)piperidin-4-yl)amino)-5-(trifluoromethyl)-pyrimidin-4-yl)-1H-imidazol-1-yl)picolinamide]
CN(C)Cc1ccc(-n2cnc(-c3nc(NC4CCN(S(C)(=O)=O)CC4)ncc3C(F)(F)F)c2)c(C(F)(F)F)c1 [Example 250, 4-(1-(4-((Dimethylamino)methyl)-2-(trifluoromethyl)phenyl)-1H-imidazol-4-yl)-N-(1-(methylsulfonyl)piperidin-4-yl)-5-(trifluoromethyl)pyrimidin-2-amine]
CCN1CCN(Cc2ccc(-n3cnc(-c4nc(N[C@@H]5CCN(S(C)(=O)=O)C[C@H]5F)ncc4C(F)(F)F)c3)c(Cl)c2)CC1 [Example 398, 4-(1-(2-Chloro-4-((4-ethylpiperazin-1-yl)methyl)phenyl)-1H-imidazol-4-yl)-N-((3R,4R)-3-fluoro-1-(methylsulfonyl)piperidin-4-yl)-5-(trifluoromethyl)pyrimidin-2-amine]
CNc1nccc(-n2cnc(-c3nc(NC4CCN(S(C)(=O)=O)CC4)ncc3C(F)(F)F)c2)c1Cl [Example 322, 4-(1-(3-Chloro-2-(methylamino)pyridin-4-yl)-1H-imidazol-4-yl)-N-(1-(methylsulfonyl)piperidin-4-yl)-5-(trifluoromethyl)pyrimidin-2-amine]
Cn1ncnc1-c1ccc(-n2cnc(-c3nc(NC4CCN(S(C)(=O)=O)CC4)ncc3C(F)(F)F)c2)c(C#N)c1 [Example 125, 5-(1-Methyl-1H-1,2,4-triazol-5-yl)-2-(4-(2-((1-(methylsulfonyl)piperidin-4-yl)amino)-5-(trifluoromethyl)pyrimidin-4-yl)-1H-imidazol-1-yl)benzonitrile]
Cc1cc(CNCC(F)F)ccc1-n1cnc(-c2nc(NC3CCN(S(C)(=O)=O)CC3)ncc2C(F)(F)F)c1 [Example 450, 4-(1-(4-(((2,2-Difluoroethyl)amino)methyl)-2-methylphenyl)-1H-imidazol-4-yl)-N-(1-(methylsulfonyl)piperidin-4-yl)-5-(trifluoromethyl)pyrimidin-2-amine]

From US11427567B2, “Imidazolyl pyrimidinylamine compounds as CDK2 inhibitors” (Incyte Corporation, priority 2019, dated 2022)
